From patent US5385908A, “Hindered esters of rapamycin” (American Home Products Corporation, priority 1993, dated 1995)
Counter-ions that a name gives are not always drawn. Like-named read-outs stand apart in the source and are kept apart here.

Experiments:
[1] = test system: cells from the thymus of normal BALB/c mice (lymphocyte proliferation); assay: comitogen-induced thymocyte proliferation procedure (LAF); assay type: cell-based; settings: read-out: LAF IC50
Procedure: (§1) Immunosuppressive activity for representative compounds of this invention was evaluated in an in vitro standard pharmacological test procedure to measure lymphocyte proliferation (LAF) and in three in vivo standard pharmacological test procedures. The pinch skin graft test procedure measures the immunosuppressive activity of the compound tested as well as the ability of the compound tested to inhibit or treat transplant rejection. The adjuvant arthritis standard pharmacological test procedure, which measures the ability of the compound tested to inhibit immune mediated inflammation. The adjuvant arthritis test procedure is a standard pharmacological test procedure for rheumatoid arthritis. Representative compounds of this invention were also evaluated in a heart allograft standard pharmacological test procedure which measures immunosuppressive activity of the compound tested as well as the ability of the compound tested to inhibit or treat transplant rejection. The procedures for these standard pharmacological test procedures are provided below.
The comitogen-induced thymocyte proliferation procedure (LAF) was used as an in vitro measure of the immunosuppressive effects of representative compounds. Briefly, cells from the thymus of normal BALB/c mice are cultured for 72 hours with PHA and IL-1 and pulsed with tritiated thymidine during the last six hours. Cells are cultured with and without various concentrations of rapamycin, cyclosporin A, or test compound. Cells are harvested and incorporated radioactivity is determined. Inhibition of lymphoproliferation is assessed as percent change in counts per minute from non-drug treated controls. For each compound evaluated, rapamycin was also evaluated for the purpose of comparison. An IC50 was obtained for each test compound as well as for rapamycin. […] The results obtained are provided as an IC50.

pinch skin graft = pinch skin graft survival test procedure; assay type: in vivo, male BALB/c donors transplanted to male C3H(H-2K) recipients; settings: 4 mg/kg, intraperitoneally or orally; mean ± S.D.; untreated rejected within 6-7 days
Procedure: as §1
Representative compounds of this invention were also evaluated in an in vivo test procedure designed to determine the survival time of pinch skin graft from male BALB/c donors transplanted to male C3 H(H-2K) recipients. The method is adapted from Billingham R. E. and Medawar P. B., J. Exp. Biol. 28:385-402, (1951 ). Briefly, a pinch skin graft from the donor was grafted on the dorsum of the recipient as a allograft, and an isograft was used as control in the same region. The recipients were treated with either varying concentrations of test compounds intraperitoneally or orally. Rapamycin was used as a test control. Untreated recipients serve as rejection control. The graft was monitored daily and observations were recorded until the graft became dry and formed a blackened scab. This was considered as the rejection day. The mean graft survival time (number of days±S.D.) of the drug treatment group was compared with the control group. […] Results are expressed as the mean survival time in days. Untreated (control) pinch skin grafts are usually rejected within 6-7 days. Compounds were tested using a dose of 4 mg/kg.

[2] = test system: immune mediated inflammation (uninjected hind paw); assay: adjuvant arthritis standard pharmacological test procedure; assay type: in vivo, male inbread Wistar Lewis rats; settings: for Percent change in adjuvant arthritis versus control: 2 mg/kg oral
Procedure: as §1
The adjuvant arthritis standard pharmacological test procedure measures the ability of test compounds to prevent immune mediated inflammation and inhibit or treat rheumatoid arthritis. The following briefly describes the test procedure used. A group of rats (male inbread Wistar Lewis rats) are pre-treated with the compound to be tested (1 h prior to antigen) and then injected with Freud's Complete Adjuvant (FCA) in the right hind paw to induce arthritis. The rats are then orally dosed on a Monday, Wednesday, Friday schedule from day 0-14 for a total of 7 doses. Both hind paws are measured on days 16, 23, and 30. The difference in paw volume (mL) from day 16 to day 0 is determined and a percent change from control is obtained. […] The right hind paw inflammation, on the other hand, is caused by nonspecific inflammation. Compounds were tested at a dose of 2 mg/kg.

heart allograft = assay: heterotropic heart allograft standard pharmacological test procedure; assay type: in vivo, BN rat neonate donors, male Lewis rat recipients; settings: untreated rejected in about 9-10 days
Procedure: as §1
The ability of the compounds of this invention to induce immunosuppression and inhibit or treat transplantation rejection was evaluated in a heterotropic heart allograft standard pharmacological test procedure that emulates transplantation rejection that occurs in humans. The following briefly describes the procedure that was used. […]

IgE-like antibodies = settings: in vivo; cited from earlier work
Candida albicans = settings: in vitro and in vivo; cited from earlier work
[3] = test system: experimental allergic encephalomyelitis; settings: model for multiple sclerosis; cited from earlier work
[4] = Mus musculus, Lymphocyte, PHA and IL-1, 72 hours culture, tritiated thymidine last six hours

CO[C@H]1C[C@@H]2CC[C@@H](C)[C@@](O)(O2)C(=O)C(=O)N2CCCC[C@H]2C(=O)O[C@H]([C@H](C)C[C@@H]2CC[C@@H](OC(=O)C(C)(C)Cc3cccnc3)[C@H](OC)C2)CC(=O)[C@H](C)/C=C(\C)[C@@H](O)[C@@H](OC)C(=O)[C@H](C)C[C@H](C)/C=C/C=C/C=C/1C [Example 2, Rapamycin 42-ester with 2,2-dimethyl-3-(3-pyridinyl) propionic acid]
IC50 [1, 4]: 0.83 nM
Skin graft survival (mean survival time) (pinch skin graft): 13.6 ± 0.6 days
Percent change in adjuvant arthritis versus control ([2]; day 16): -62%
Heart allograft (mean graft survival time) (heart allograft; i.p., 300 μg/day): 29 days
Heart allograft (mean graft survival time) (heart allograft; p.o.): 11.5 days

CO[C@H]1C[C@@H]2CC[C@@H](C)[C@@](O)(O2)C(=O)C(=O)N2CCCC[C@H]2C(=O)O[C@H]([C@H](C)C[C@@H]2CC[C@@H](OC(=O)C(C)(C)Cc3cccnc3)[C@H](OC)C2)CC(=O)[C@H](C)/C=C(\C)[C@@H](O)[C@@H](OC)C(=O)[C@H](C)C[C@H](C)/C=C/C=C/C=C/1C [Example 3, Rapamycin 42-ester with 2,2-dimethyl-3-(3-pyridinyl) propionic acid hydrochloride salt]
IC50 ([1]; PHA and IL-1, 72 hours culture, tritiated thymidine last six hours, hydrochloride salt): 1.03 nM
Percent change in adjuvant arthritis versus control ([2]; day 16, hydrochloride salt): -73%

CO[C@H]1C[C@@H]2CC[C@@H](C)[C@@](O)(O2)C(=O)C(=O)N2CCCC[C@H]2C(=O)O[C@H]([C@H](C)C[C@@H]2CC[C@@H](OC(=O)C(C)(C)CCc3ccccn3)[C@H](OC)C2)CC(=O)[C@H](C)/C=C(\C)[C@@H](O)[C@@H](OC)C(=O)[C@H](C)C[C@H](C)/C=C/C=C/C=C/1C [Example 5, Rapamycin 42-ester with 2,2-dimethyl-4-(2-pyridinyl) butyric acid]
IC50 [1, 4]: 0.58 nM
Percent change in adjuvant arthritis versus control ([2]; day 16): -75%

CO[C@H]1C[C@@H]2CC[C@@H](C)[C@@](O)(O2)C(=O)C(=O)N2CCCC[C@H]2C(=O)O[C@H]([C@H](C)C[C@@H]2CC[C@@H](OC(=O)C(C)(C)CCCc3cccnc3)[C@H](OC)C2)CC(=O)[C@H](C)/C=C(\C)[C@@H](O)[C@@H](OC)C(=O)[C@H](C)C[C@H](C)/C=C/C=C/C=C/1C [Example 6, Rapamycin 42-ester with 2,2-dimethyl-5-(3-pyridinyl) pentanoic acid]
IC50 [1, 4]: 3 nM
Skin graft survival (mean survival time) (pinch skin graft): 12.50 ± 0.55 days
Percent change in adjuvant arthritis versus control ([2]; day 16): -45%

CO[C@H]1C[C@@H]2CC[C@@H](C)[C@@](O)(O2)C(=O)C(=O)N2CCCC[C@H]2C(=O)O[C@H]([C@H](C)C[C@@H]2CC[C@@H](OC(=O)C(C)(C)Cc3ccccn3)[C@H](OC)C2)CC(=O)[C@H](C)/C=C(\C)[C@@H](O)[C@@H](OC)C(=O)[C@H](C)C[C@H](C)/C=C/C=C/C=C/1C [Example 7, Rapamycin 42-ester with 2,2-dimethyl-3-(2-pyridinyl) propionic acid]
IC50 [1, 4]: 0.6 nM
Percent change in adjuvant arthritis versus control ([2]; day 16): -78%

CO[C@H]1C[C@@H]2CC[C@@H](C)[C@@](O)(O2)C(=O)C(=O)N2CCCC[C@H]2C(=O)O[C@H]([C@H](C)C[C@@H]2CC[C@@H](OC(=O)C(C)(C)CCc3cccnc3)[C@H](OC)C2)CC(=O)[C@H](C)/C=C(\C)[C@@H](O)[C@@H](OC)C(=O)[C@H](C)C[C@H](C)/C=C/C=C/C=C/1C [Example 8, Rapamycin 42-ester with 2,2-dimethyl-4-(3-pyridinyl) butyric acid]
IC50 [1, 4]: 1.2 nM
Percent change in adjuvant arthritis versus control ([2]; day 16): -50%

CO[C@H]1C[C@@H]2CC[C@@H](C)[C@@](O)(O2)C(=O)C(=O)N2CCCC[C@H]2C(=O)O[C@H]([C@H](C)C[C@@H]2CC[C@@H](OC(=O)C(C)(C)Cc3ccncc3)[C@H](OC)C2)CC(=O)[C@H](C)/C=C(\C)[C@@H](O)[C@@H](OC)C(=O)[C@H](C)C[C@H](C)/C=C/C=C/C=C/1C [Example 9, Rapamycin 42-ester with 2,2-dimethyl-3-(4-pyridinyl) propionic acid]
IC50 [1, 4]: 0.84 nM
Skin graft survival (mean survival time) (pinch skin graft): 11.17 ± 1.47 days
Percent change in adjuvant arthritis versus control ([2]; day 16): -73%

CO[C@H]1C[C@@H]2CC[C@@H](C)[C@@](O)(O2)C(=O)C(=O)N2CCCC[C@H]2C(=O)O[C@H]([C@H](C)C[C@@H]2CC[C@@H](OC(=O)C3(C)CCN(C)CC3)[C@H](OC)C2)CC(=O)[C@H](C)/C=C(\C)[C@@H](O)[C@@H](OC)C(=O)[C@H](C)C[C@H](C)/C=C/C=C/C=C/1C [Example 12, Rapamycin 42-ester with 1,4-dimethylpiperidine-4-carboxylic acid]
IC50 [1, 4]: 0.58 nM
Skin graft survival (mean survival time) (pinch skin graft): 12.83 ± 1.47 days
Percent change in adjuvant arthritis versus control ([2]; day 16): -75%

CO[C@H]1C[C@@H]2CC[C@@H](C)[C@@](O)(O2)C(=O)C(=O)N2CCCC[C@H]2C(=O)O[C@H]([C@H](C)C[C@@H]2CC[C@@H](OC(=O)C3(C)CCCCN3C(=O)c3ccccc3)[C@H](OC)C2)CC(=O)[C@H](C)/C=C(\C)[C@@H](O)[C@@H](OC)C(=O)[C@H](C)C[C@H](C)/C=C/C=C/C=C/1C (stereo partly shown) [Example 13, Rapamycin 42-ester with 1-benzoyl-2-methyl-piperidine-2-carboxylic acid]
IC50 [1, 4]: 2.9 nM

CO[C@H]1C[C@@H]2CC[C@@H](C)[C@@](O)(O2)C(=O)C(=O)N2CCCC[C@H]2C(=O)O[C@H]([C@H](C)C[C@@H]2CC[C@@H](O)[C@H](OC)C2)CC(=O)[C@H](C)/C=C(\C)[C@@H](O)[C@@H](OC)C(=O)[C@H](C)C[C@H](C)/C=C/C=C/C=C/1C [rapamycin]
inhibition of formation of IgE-like antibodies (in words) (IgE-like antibodies): effectively inhibited the formation of IgE-like antibodies
antifungal activity (in words) (Candida albicans): antifungal activity, particularly against Candida albicans, both in vitro and in vivo
IC50 ([1]; Mus musculus, Lymphocyte): 0.5 to 1.9 nM
less immune induced inflammation than control rats ([2]; rapamycin treated rats, day 16): 70-90%
effect in experimental allergic encephalomyelitis model (in words) [3]: effective in the experimental allergic encephalomyelitis model
